By IC50 is commonly meant the concentration that gives 50% inhibition.

human recombinant GPR65, sequence (Q8IYL9 whole entry): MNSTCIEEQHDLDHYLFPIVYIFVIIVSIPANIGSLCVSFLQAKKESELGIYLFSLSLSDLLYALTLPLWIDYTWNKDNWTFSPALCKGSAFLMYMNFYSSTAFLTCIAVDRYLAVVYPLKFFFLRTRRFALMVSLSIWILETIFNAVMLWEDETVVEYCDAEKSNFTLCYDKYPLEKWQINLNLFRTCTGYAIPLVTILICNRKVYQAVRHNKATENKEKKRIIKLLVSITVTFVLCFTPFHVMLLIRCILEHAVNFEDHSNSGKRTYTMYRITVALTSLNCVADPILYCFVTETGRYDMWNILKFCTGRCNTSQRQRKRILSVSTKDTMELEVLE

The first assay concerns the target human recombinant GPR65 (Homo sapiens, UniProt Q8IYL9). The assay can be described thus: Human GPR65 cAMP HTRF antagonist assay. In kind it is cell-based.
Details: not given
From the text:
In one preferred embodiment, the compound prevents the increase in cytoplasmic cAMP levels expected following GPR65 activation at acidic pH. This prevention of cAMP accumulation in turn prevents downstream signalling through ICER, as described above. The “Human GPR65 cyclic adenosine monophosphate (cAMP) Homogeneous Time Resolved Fluorescence (HTRF) antagonist assay”, or simply “cAMP assay”, as described in the accompanying examples, can be used to measure the potency of GPR65 modulators, which is expressed as the concentration of compound required to reduce the increase in cAMP concentration upon GPR65 activation by 50% (i.e. an IC50).
Human GPR65 Cyclic Adenosine Monophosphate (cAMP) Homogeneous Time Resolved Fluorescence (HTRF) Antagonist Assay Procedure
IC50 data was obtained by the following procedure:
1321N1 human astrocytoma cells stably expressing human recombinant GPR65 (1321N1-hrGPR65 cells, EuroscreenFast) were cultured according to the vendor's instructions. Compounds were tested for their ability to antagonise GPR65, through measuring the concentration of cytoplasmic cAMP following treatment of the cells at a pH of 7.2 to activate GPR65 signalling and addition of the compound to be tested. The extent to which the expected rise in cAMP concentration upon GPR65 activation was suppressed by the added compound is indicative of its potency. The assay was carried out according to EuroscreenFast assay Methodology as follows.
On the day of the assay, test compounds were added to 384-well, low volume, white microtiter plates by acoustic dispensing. KRH buffer (5 mM KCl, 1.25 mM MgSO4, 124 mM NaCl, 25 mM HEPES, 13.3 mM Glucose, 1.25 mM KH2PO4 and 1.45 mM CaCl2) was adjusted to pH 6.5, pH 7.6 and pH 8.4 by adding NaOH. 1321N1-hGPR65 cells were rapidly thawed and diluted in KRH, pH 7.6 prior to centrifugation at 300×g for 5 min and resuspension in assay buffer (KRH, pH 7.6, supplemented with 1 mM 3-isobutyl-1-methylxanthine (IBMX) and 200 μM ethylenediaminetetraacetic acid (EDTA)). Cells were added to assay plates at a density of 2,000 cells per well in a volume of 5 μl. Assay plates were briefly centrifuged at 100×g and then incubated at room temperature for 30 min. Cells were stimulated by the addition of 5 μL KRH, pH 6.5, to achieve an assay pH of 7.2, while control wells received 5 μl KRH, pH 8.4 to achieve an assay pH of 7.9. Assay plates were briefly centrifuged at 100×g and then incubated at room temperature for 30 min.
Accumulation of cAMP was detected by cAMP HTRF kit (Cisbio). d2-labeled cAMP and cryptate-labeled anti-cAMP antibody in Lysis and Detection Buffer (Cisbio) were added to assay plates, and the plates were incubated at room temperature for 1 h. HTRF measurements were performed using a Pherastar FSX instrument. Acceptor and donor emission signals were measured at 665 nm and 620 nm, respectively, and HTRF ratios were calculated as signal665 nm/signal620 nm×10^4. Data were normalised to high and low control values and fitted with 4-parameter logistic regression to determine hGPR65 IC50 values for the test compounds, which are shown in Table 1.
On the technique in general: In TR-FRET formats the signal depends on donor and acceptor labels being close together.
For `O=C1NN=C2C(=CC3CCC2N3C(=O)Nc2cc(Cl)c(C(F)(F)F)cc2F)N1` (racemic) [Compound 1, (±)-N-(5-Chloro-2-fluoro-4-(trifluoromethyl)phenyl)-3-oxo-3,4,6,7,8,9-hexahydro-2H-6,9-epiminocyclohepta[e][1,2,4]triazine-10-carboxamide], the IC50 was under 500 nM.

Turning to `O=C1NN=C2C(=CC3CCC2N3C(=O)Nc2cc(Cl)c(-c3cncc(F)c3)cc2F)N1` (racemic) [Compound 2, (±)-N-(5-Chloro-2-fluoro-4-(5-fluoropyridin-3-yl)phenyl)-3-oxo-3,4,6,7,8,9-hexahydro-2H-6,9-epiminocyclohepta[e][1,2,4]triazine-10-carboxamide], the IC50 is under 500 nM.

Take `O=C1NN=C2C(=CC3CCC2N3C(=O)Nc2cc(Cl)c(-c3ccc(F)nc3)cc2F)N1` (racemic) [Compound 3, (±)-N-(5-chloro-2-fluoro-4-(6-fluoropyridin-3-yl)phenyl)-3-oxo-3,4,6,7,8,9-hexahydro-2H-6,9-epiminocyclohepta[e][1,2,4]triazine-10-carboxamide]: the IC50 was under 500 nM.

`O=C1NN=C2C(=CC3CCC2N3C(=O)Nc2cc(Cl)c(-c3ccc4nonc4c3)cc2F)N1` (racemic) [Compound 4, (±)-N-(4-(benzo[c][1,2,5]oxadiazol-5-yl)-5-chloro-2-fluorophenyl)-3-oxo-3,4,6,7,8,9-hexahydro-2H-6,9-epiminocyclohepta[e][1,2,4]triazine-10-carboxamide]: the IC50 was under 500 nM.

For the compound `O=C(Nc1cc(Cl)c(C(F)(F)F)cc1F)N1[C@@H]2C=C3NC(=S)NN=C3[C@H]1CC2` [Compound 7, (6S,9R)-N-(5-Chloro-2-fluoro-4-(trifluoromethyl)phenyl)-3-thioxo-3,4,6,7,8,9-hexahydro-2H-6,9-epiminocyclohepta[e][1,2,4]triazine-10-carboxamide], the IC50 was under 500 nM.

Take `O=C1NN=C2C(=C[C@@H]3CC[C@H]2N3C(=O)Nc2cc(Cl)c(C(F)(F)F)cc2F)N1` [Compound 8, (6S,9R)-N-(5-Chloro-2-fluoro-4-(trifluoromethyl)phenyl)-3-oxo-3,4,6,7,8,9-hexahydro-2H-6,9-epiminocyclohepta[e][1,2,4]triazine-10-carboxamide]: the IC50 was under 500 nM.

For the compound `CC(C)Oc1ccc(-c2cc(F)c(NC(=O)N3[C@@H]4C=C5NC(=O)NN=C5[C@H]3CC4)cc2Cl)cn1` [Compound 10, (6S,9R)-N-(5-Chloro-2-fluoro-4-(6-isopropoxypyridin-3-yl)phenyl)-3-oxo-3,4,6,7,8,9-hexahydro-2H-6,9-epiminocyclohepta[e][1,2,4]triazine-10-carboxamide], the IC50 is under 500 nM.

As for `O=C1NN=C2C(=C[C@@H]3CC[C@H]2N3C(=O)Nc2cc(Cl)c(-c3ccc(OCC(F)(F)F)nc3)cc2F)N1` [Compound 11, (6S,9R)-N-(5-Chloro-2-fluoro-4-(6-(2,2,2-trifluoroethoxy)pyridine-3-yl)phenyl)-3-oxo-3,4,6,7,8,9-hexahydro-2H-6,9-epiminocyclohepta[e][1,2,4]triazine-10-carboxamide], the IC50 is under 500 nM.

For the compound `O=C1NN=C2C(=C[C@@H]3CC[C@H]2N3C(=O)Nc2cc(Cl)c(-c3ccc4nonc4c3)cc2F)N1` [Compound 13, (6S,9R)-N-(4-(Benzo[c][1,2,5]oxadiazol-5-yl)-5-chloro-2-fluorophenyl)-3-oxo-3,4,6,7,8,9-hexahydro-2H-6,9-epiminocyclohepta[e][1,2,4]triazine-10-carboxamide], the IC50 was under 500 nM.

The same assay, now with this note: 1321N1-hrGPR65 cells, assay pH 7.2, suppression of cAMP rise, HTRF; read-out: hGPR65 IC50 (activity class).
Consider `O=C1NN=C2C(=CC3CCC2N3C(=O)Nc2cc(C(F)(F)F)on2)N1` (racemic) [Compound 5, (±)-3-Oxo-N-(5-(trifluoromethyl)isoxazol-3-yl)-3,4,6,7,8,9-hexahydro-2H-6,9-epiminocyclohepta[e][1,2,4]triazine-10-carboxamide], for which the IC50 lay in the range of 500 to 5000 nM.

`CS(=O)(=O)c1nnc2c(n1)CC1CCC2N1C(=O)Nc1cc(Cl)c(C(F)(F)F)cc1F` (racemic) [Compound 6, (±)-N-(5-Chloro-2-fluoro-4-(trifluoromethyl)phenyl)-3-(methylsulfonyl)-6,7,8,9-tetrahydro-5H-6,9-epiminocyclohepta[e][1,2,4]triazine-10-carboxamide]: the IC50 is 500 to 5000 nM.

Turning to `O=C1NN=C2C(=C[C@H]3CC[C@@H]2N3C(=O)Nc2cc(Cl)c(C(F)(F)F)cc2F)N1` [Compound 9, (6R,9S)-N-(5-Chloro-2-fluoro-4-(trifluoromethyl)phenyl)-3-oxo-3,4,6,7,8,9-hexahydro-2H-6,9-epiminocyclohepta[e][1,2,4]triazine-10-carboxamide], the IC50 lay in the range of 500 to 5000 nM.

With `O=C1NN=C2C(=C[C@H]3CC[C@@H]2N3C(=O)Nc2cc(Cl)c(-c3ccc4nonc4c3)cc2F)N1` [Compound 12, (6R,9S)-N-(4-(Benzo[c][1,2,5]oxadiazol-5-yl)-5-chloro-2-fluorophenyl)-3-oxo-3,4,6,7,8,9-hexahydro-2H-6,9-epiminocyclohepta[e][1,2,4]triazine-10-carboxamide], the half-maximal inhibitory concentration (IC50) lay in the range of 500 to 5000 nM.

The record behind these values is US20260070909A1, “GPR65 MODULATORS” (Pathios Therapeutics Limited, priority 2022, published 2026).
